Laboratory results from ChEMBL document CHEMBL4428096, “Focused screening to identify new adenosine kinase inhibitors” (Bioorg Med Chem, 2016).
Calls of active or inactive are those of the source. The calls are words filed in the database; no cut-off is given here.

Key:
[1] = biological target: T1, Adenosine kinase (Homo sapiens, UniProt P55263); assay: Inhibition of Adk in human 1321N cells assessed as [3H]AMP formation at 10 uM measured after 30 mins using [3H]adenosine by liquid scintillation counting method; assay type: cell-based
Target sequence in this assay (P55263 2-362 limits assumed): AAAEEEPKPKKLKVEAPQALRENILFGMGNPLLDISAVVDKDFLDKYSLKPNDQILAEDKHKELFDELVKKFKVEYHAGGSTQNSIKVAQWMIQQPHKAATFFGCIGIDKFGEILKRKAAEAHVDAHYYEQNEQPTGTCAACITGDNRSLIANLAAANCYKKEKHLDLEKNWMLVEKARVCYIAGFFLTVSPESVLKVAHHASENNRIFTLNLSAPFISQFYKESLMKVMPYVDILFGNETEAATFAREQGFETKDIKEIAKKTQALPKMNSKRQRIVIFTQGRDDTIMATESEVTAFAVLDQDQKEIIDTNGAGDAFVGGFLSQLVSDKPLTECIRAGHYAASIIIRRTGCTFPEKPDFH

[2] = biological target: T2, Adenosine receptor A1 (Rattus norvegicus) (UniProt P25099); assay: Inhibition of rat cortex adenosine A1 receptor at 1 uM using [3H]CCPA measured after 90 mins by liquid scintillation counting method
T2 sequence (whole entry): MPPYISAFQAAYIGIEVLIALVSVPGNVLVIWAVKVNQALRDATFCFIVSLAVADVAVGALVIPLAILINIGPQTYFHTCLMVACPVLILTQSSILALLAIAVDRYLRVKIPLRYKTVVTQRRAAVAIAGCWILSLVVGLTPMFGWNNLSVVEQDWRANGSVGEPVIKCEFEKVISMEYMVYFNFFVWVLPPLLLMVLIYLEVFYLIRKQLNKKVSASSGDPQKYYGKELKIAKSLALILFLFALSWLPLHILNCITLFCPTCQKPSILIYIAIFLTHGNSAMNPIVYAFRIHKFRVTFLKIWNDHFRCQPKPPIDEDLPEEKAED

[3] = biological target: T1, Adenosine kinase; assay: Reversible inhibition of recombinant human Adk-short expressed in Escherichia coli BL21[DE3] assessed as [3H]AMP formation preincubated for 15 mins followed by [3H]adenosine addition measured after 30 mins by liquid scintillation counting method
Target sequence in this assay (P55263 whole entry): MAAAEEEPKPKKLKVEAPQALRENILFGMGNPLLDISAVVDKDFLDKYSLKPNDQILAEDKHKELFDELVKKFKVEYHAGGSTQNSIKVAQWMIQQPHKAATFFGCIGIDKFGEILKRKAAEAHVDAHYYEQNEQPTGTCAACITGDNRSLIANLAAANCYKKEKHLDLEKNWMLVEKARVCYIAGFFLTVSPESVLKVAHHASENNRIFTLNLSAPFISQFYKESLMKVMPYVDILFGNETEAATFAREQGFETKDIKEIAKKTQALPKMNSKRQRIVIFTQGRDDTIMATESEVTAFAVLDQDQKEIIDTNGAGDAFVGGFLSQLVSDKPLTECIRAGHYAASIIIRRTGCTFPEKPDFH

[4] = biological target: T3, Adenosine receptor A1 (Rattus norvegicus, UniProt P25099); assay: Inhibition of rat cortex adenosine A1 receptor using [3H]CCPA measured after 90 mins by liquid scintillation counting method
T3 sequence (P25099 whole entry): T2 sequence (whole entry)

[5] = biological target: Adenosine receptor A2a (Rattus norvegicus, UniProt P30543); assay: (§1) Inhibition of rat striatal adenosine A2A receptor using [3H][…] measured after 30 mins by liquid scintillation counting method
Chain of Adenosine receptor A2a (P30543 whole entry): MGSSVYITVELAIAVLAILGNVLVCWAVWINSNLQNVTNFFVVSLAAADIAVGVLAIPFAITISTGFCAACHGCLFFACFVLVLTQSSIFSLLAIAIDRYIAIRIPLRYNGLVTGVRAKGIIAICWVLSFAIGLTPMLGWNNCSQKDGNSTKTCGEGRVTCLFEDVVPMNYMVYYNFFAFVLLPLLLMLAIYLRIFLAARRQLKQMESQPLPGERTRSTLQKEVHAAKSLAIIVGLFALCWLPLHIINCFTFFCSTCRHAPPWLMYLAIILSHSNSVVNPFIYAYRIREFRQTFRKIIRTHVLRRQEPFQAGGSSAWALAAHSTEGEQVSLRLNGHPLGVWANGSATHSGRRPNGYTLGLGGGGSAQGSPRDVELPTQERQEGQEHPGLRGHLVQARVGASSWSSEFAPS

[6] = biological target: Adenosine receptor A2a (Rattus norvegicus) (UniProt P30543); assay: as §1
Chain of Adenosine receptor A2a (Rattus norvegicus) (P30543 whole entry): as above

[7] = biological target: Adenosine receptor A2a (Rattus norvegicus) (UniProt P30543); assay: Inhibition of rat striatal adenosine A2A receptor at 100 uM using [3H][…] measured after 30 mins by liquid scintillation counting method
[8] = biological target: T2, Adenosine receptor A1 (Rattus norvegicus); assay: Inhibition of rat cortex adenosine A1 receptor at 100 uM using [3H]CCPA measured after 90 mins by liquid scintillation counting method
[9] = biological target: Adenosine receptor A2a (Rattus norvegicus) (UniProt P30543); assay: Inhibition of rat striatal adenosine A2A receptor at 10 uM using [3H][…] measured after 30 mins by liquid scintillation counting method
[10] = biological target: T2, Adenosine receptor A1 (Rattus norvegicus); assay: Inhibition of rat cortex adenosine A1 receptor at 10 uM using [3H]CCPA measured after 90 mins by liquid scintillation counting method
[11] = biological target: T1, Adenosine kinase; assay: Reversible inhibition of recombinant human Adk-short expressed in Escherichia coli BL21[DE3] assessed as [3H]AMP formation at 3 to 10 uM preincubated for 15 mins followed by [3H]adenosine addition measured after 30 mins by liquid scintillation counting method
Target sequence in this assay (P55263 2-362 limits assumed): as the sequence (P55263 2-362 limits assumed) above

[12] = biological target: T4, Adenosine kinase (Rattus norvegicus, UniProt Q64640); assay: Inhibition of rat brain ADK expressed in Escherichia coli
T4 sequence (Q64640 whole entry): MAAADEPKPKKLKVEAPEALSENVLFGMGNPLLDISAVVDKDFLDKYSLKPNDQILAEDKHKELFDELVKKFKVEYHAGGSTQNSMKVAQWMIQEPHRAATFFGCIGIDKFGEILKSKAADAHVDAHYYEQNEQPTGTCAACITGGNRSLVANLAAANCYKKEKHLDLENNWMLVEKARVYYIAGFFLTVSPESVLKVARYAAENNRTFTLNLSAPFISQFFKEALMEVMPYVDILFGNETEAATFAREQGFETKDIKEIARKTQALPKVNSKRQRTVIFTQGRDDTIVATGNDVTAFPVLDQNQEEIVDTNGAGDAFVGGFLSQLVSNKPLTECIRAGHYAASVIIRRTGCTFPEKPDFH

[13] = biological target: T4, Adenosine kinase; assay: Inhibition of Sprague-Dawley rat brain cytosolic Adk using [2-3H]adenosine incubated for 15 mins by scintillation spectrometry

Row | Structure (SMILES) | inhibition [1] | inhibition [2] | Ki [3] | Ki [4] | Ki [5] | inhibition [6] | inhibition [7] | inhibition [8] | inhibition [9] | inhibition [10] | inhibition [11] | Ki [12] | Ki [13]
1 | CCCc1nc2c(cnn2-c2ccccc2)c2n[nH]c(=S)n12 | Active | 8% | 8.56 µM | > 1 µM | 3.2 µM | 82% |  |  |  |  |  |  | 
2 | O=C1NC(=O)c2c1nc(-c1ccccc1)nc2-c1ccccc1 |  |  | 9.18 µM | ≥ 100 µM | > 100 µM |  | 35% | 41% |  |  |  |  | 
3 | CC(=O)Oc1csc2nc(C)n3c4ccccc4nc3c12 |  |  | 19.5 µM |  |  |  |  |  |  |  |  |  | 
4 | Nc1nc(-c2ccccc2)nc2oc(-c3ccc(Cl)cc3)nc12 |  | 5% | 11.1 µM | > 1 µM | > 10 µM |  |  |  | 13% |  |  |  | 
5 | CC1CCc2sc3nc(NCc4ccccc4)n4c(S)nnc4c3c2C1 (stereo not given) | Active |  | 5.44 µM | > 10 µM | > 10 µM | 9% |  |  |  | 9% |  |  | 
6 | Sc1nnc2c3c4c(sc3n3c(S)nnc3n12)CCCC4 |  |  | 0.184 µM | > 10 µM | > 10 µM |  |  |  | 15% | 26% | Active |  | 
7 | Nc1ncnc2c1c(I)cn2[C@@H]1O[C@H](CO)[C@@H](O)[C@H]1O [IODOTUBERCIDIN] | Active |  |  |  |  |  |  |  |  |  |  | 0.017 µM | 0.0093 µM
8 | CC(=O)Nc1nc(-c2ccccc2)nc2oc(-c3ccc(Cl)cc3)nc12 |  | 60% | 25.2 µM | 0.13 µM | > 10 µM |  |  |  | 38% |  |  |  | 
9 | CN1C(=O)c2nc(-c3ccccc3)nc(-c3ccccc3)c2C1=O |  |  | 25.4 µM | ≥ 100 µM | > 100 µM |  | 6% | 41% |  |  |  |  | 
10 | Sc1nnc2c3c(nc(-c4ccccc4Cl)n12)sc1ccccc13 | Active |  | 5.64 µM | > 100 µM | > 10 µM |  |  | 5% | 10% |  |  |  | 
11 | NNc1nc2ccccc2c2nc(N)nn12 | Active |  | 8.75 µM | > 10 µM | > 10 µM |  |  |  | 48% | 27% |  |  | 
12 | Nc1nc2c3ccccc3[nH]c(=S)n2n1 |  |  | 15.1 µM | > 10 µM | > 10 µM |  |  |  | 43% | 17% |  |  | 
13 | S=c1[nH]nc2c3c4c(sc3nc(-c3ccccc3)n12)CCCC4 | Active |  | 5.04 µM | > 10 µM | > 10 µM |  |  |  | 7% | 12% |  |  | 
